{"source": "ChEMBL document CHEMBL4715780", "about": "“Biological evaluation of tetracationic compounds based on two 1,4-diazabicyclo[2.2.2]octane moieties connected by different linkers” (Bioorg Med Chem, 2016)", "type_in_all_cases": "functional", "key": {"[1]": {"system": "Proteus vulgaris", "test": "Antibacterial activity against Proteus vulgaris ATCC 6380 assessed as bacterial growth inhibition by CLSI protocol based serial microdilution method"}, "[2]": {"system": "Enterococcus faecalis", "test": "Antibacterial activity against Enterococcus faecalis ATCC 51299 assessed as bacterial growth inhibition by CLSI protocol based serial microdilution method"}, "[3]": {"system": "Enterococcus faecalis", "test": "Antibacterial activity against Enterococcus faecalis ATCC 51299 assessed as concentration required to inhibit visible growth by CLSI protocol based serial microdilution method"}, "[4]": {"system": "Staphylococcus aureus", "test": "Antibacterial activity against […] Staphylococcus aureus ATCC 25923 assessed as bacterial growth inhibition by CLSI protocol based serial microdilution method"}, "[5]": {"system": "Staphylococcus aureus", "test": "Antibacterial activity against methicillin-resistant Staphylococcus aureus CEMTC 1850 assessed as bacterial growth inhibition by CLSI protocol based serial microdilution method"}, "[6]": {"system": "Proteus vulgaris", "test": "Antibacterial activity against Proteus vulgaris ATCC 6380 assessed as concentration required to inhibit visible growth by CLSI protocol based serial microdilution method"}, "[7]": {"system": "Salmonella typhimurium", "test": "Antibacterial activity against Salmonella enterica ATCC 14028 assessed as concentration required to inhibit visible growth by CLSI protocol based serial microdilution method", "conditions": "Salmonella enterica subsp. enterica serovar Typhimurium"}, "[8]": {"system": "Pseudomonas aeruginosa", "test": "Antibacterial activity against Pseudomonas aeruginosa ATCC 9027 assessed as concentration required to inhibit visible growth by CLSI protocol based serial microdilution method"}, "[9]": {"system": "Staphylococcus aureus", "test": "Antibacterial activity against methicillin-resistant Staphylococcus aureus CEMTC 707 assessed as concentration required to inhibit visible growth by CLSI protocol based serial microdilution method"}, "[10]": {"system": "Staphylococcus aureus", "test": "Antibacterial activity against methicillin-resistant Staphylococcus aureus CEMTC 707 assessed as bacterial growth inhibition by CLSI protocol based serial microdilution method"}, "[11]": {"system": "Staphylococcus aureus", "test": "Antibacterial activity against methicillin-resistant Staphylococcus aureus CEMTC 1733 assessed as bacterial growth inhibition by CLSI protocol based serial microdilution method"}, "[12]": {"system": "Staphylococcus aureus", "test": "Antibacterial activity against methicillin-resistant Staphylococcus aureus CEMTC 1732 assessed as bacterial growth inhibition by CLSI protocol based serial microdilution method"}, "[13]": {"system": "Staphylococcus aureus", "test": "Antibacterial activity against methicillin-resistant Staphylococcus aureus CEMTC 1695 assessed as concentration required to inhibit visible growth by CLSI protocol based serial microdilution method"}, "[14]": {"system": "Staphylococcus aureus", "test": "Antibacterial activity against methicillin-resistant Staphylococcus aureus CEMTC 1733 assessed as concentration required to inhibit visible growth by CLSI protocol based serial microdilution method"}, "[15]": {"system": "Staphylococcus aureus", "test": "Antibacterial activity against methicillin-resistant Staphylococcus aureus CEMTC 1850 assessed as concentration required to inhibit visible growth by CLSI protocol based serial microdilution method"}, "[16]": {"system": "Staphylococcus aureus", "test": "Antibacterial activity against methicillin-resistant Staphylococcus aureus CEMTC 675 assessed as concentration required to inhibit visible growth by CLSI protocol based serial microdilution method"}, "[17]": {"system": "Escherichia coli", "test": "Antibacterial activity against Escherichia coli ATCC 25922 assessed as concentration required to inhibit visible growth by CLSI protocol based serial microdilution method"}, "[18]": {"system": "Staphylococcus aureus", "test": "Antibacterial activity against methicillin-resistant Staphylococcus aureus CEMTC 675 assessed as bacterial growth inhibition by CLSI protocol based serial microdilution method"}, "[19]": {"system": "Citrobacter freundii", "test": "Antibacterial activity against Citrobacter freundii ATCC 8090 assessed as bacterial growth inhibition by CLSI protocol based serial microdilution method"}, "[20]": {"system": "Staphylococcus aureus", "test": "Antibacterial activity against […] Staphylococcus aureus ATCC 25923 assessed as concentration required to inhibit visible growth by CLSI protocol based serial microdilution method"}, "[21]": {"system": "Escherichia coli", "test": "Antibacterial activity against Escherichia coli ATCC 25922 assessed as bacterial growth inhibition by CLSI protocol based serial microdilution method"}, "[22]": {"system": "Staphylococcus aureus", "test": "Antibacterial activity against methicillin-resistant Staphylococcus aureus CEMTC 1732 assessed as concentration required to inhibit visible growth by CLSI protocol based serial microdilution method"}, "[23]": {"system": "Salmonella typhimurium", "test": "Antibacterial activity against Salmonella enterica ATCC 14028 assessed as bacterial growth inhibition by CLSI protocol based serial microdilution method", "conditions": "Salmonella enterica subsp. enterica serovar Typhimurium"}, "[24]": {"system": "Pseudomonas aeruginosa", "test": "Antibacterial activity against Pseudomonas aeruginosa ATCC 9027 assessed as bacterial growth inhibition by CLSI protocol based serial microdilution method"}, "[25]": {"system": "Citrobacter freundii", "test": "Antibacterial activity against Citrobacter freundii ATCC 8090 assessed as concentration required to inhibit visible growth by CLSI protocol based serial microdilution method"}, "[26]": {"system": "Staphylococcus aureus", "test": "Antibacterial activity against methicillin-resistant Staphylococcus aureus CEMTC 1695 assessed as bacterial growth inhibition by CLSI protocol based serial microdilution method"}}, "data": [{"sequence": "GENTAMICIN", "values": [{"measurement": "MIC", "setting": "[1]", "result": 0.8, "unit": "µg/mL"}, {"measurement": "MIC", "setting": "[2]", "result": 50, "unit": "µg/mL"}, {"measurement": "MBC", "setting": "[3]", "result": 100, "unit": "µg/mL"}, {"measurement": "MIC", "setting": "[4]", "result": 50, "unit": "µg/mL"}, {"measurement": "MIC", "setting": "[5]", "result": 10, "unit": "µg/mL"}, {"measurement": "MBC", "setting": "[6]", "result": 1.6, "unit": "µg/mL"}, {"measurement": "MBC", "setting": "[7]", "result": 1.6, "unit": "µg/mL"}, {"measurement": "MBC", "setting": "[8]", "result": "> 400", "unit": "µg/mL"}, {"measurement": "MBC", "setting": "[9]", "result": 1, "unit": "µg/mL"}, {"measurement": "MIC", "setting": "[10]", "result": 1, "unit": "µg/mL"}, {"measurement": "MIC", "setting": "[11]", "result": 1, "unit": "µg/mL"}, {"measurement": "MIC", "setting": "[12]", "result": "> 100", "unit": "µg/mL"}, {"measurement": "MBC", "setting": "[13]", "result": "> 100", "unit": "µg/mL"}, {"measurement": "MBC", "setting": "[14]", "result": 1, "unit": "µg/mL"}, {"measurement": "MBC", "setting": "[15]", "result": "> 100", "unit": "µg/mL"}, {"measurement": "MBC", "setting": "[16]", "result": "> 100", "unit": "µg/mL"}, {"measurement": "MBC", "setting": "[17]", "result": 100, "unit": "µg/mL"}, {"measurement": "MIC", "setting": "[18]", "result": "> 100", "unit": "µg/mL"}, {"measurement": "MIC", "setting": "[19]", "result": 0.4, "unit": "µg/mL"}, {"measurement": "MBC", "setting": "[20]", "result": 100, "unit": "µg/mL"}, {"measurement": "MIC", "setting": "[21]", "result": 50, "unit": "µg/mL"}, {"measurement": "MBC", "setting": "[22]", "result": "> 100", "unit": "µg/mL"}, {"measurement": "MIC", "setting": "[23]", "result": 0.8, "unit": "µg/mL"}, {"measurement": "MIC", "setting": "[24]", "result": "> 400", "unit": "µg/mL"}, {"measurement": "MBC", "setting": "[25]", "result": 0.8, "unit": "µg/mL"}, {"measurement": "MIC", "setting": "[26]", "result": "> 100", "unit": "µg/mL"}]}]}
